For series [1], the system named is WKY rats showing normal blood pressure. The series can be described thus: One-month continuous oral administration to WKY rats (safety). The series is classed as in vivo, rat. The following applies: 10 mg/kg body weight/day continuously for one month. The text has this: Foods fermented with Lactobacillus bacteria have been eaten by human beings for a long time, and it is therefore assumed that Tyr-Pro contained in the antihypertensive agent of the present invention has no problem in safety.

The target in series [2] is Angiotensin converting enzyme (ACE) (Homo sapiens, UniProt P12821). The following applies: J. Dairy Sci. 78:777-783; cited from earlier work.
The subject of series [3] is spontaneously hypertensive rats (SHR). The following applies: J. Dairy Sci. 78:1253-1257; cited from earlier work.

Peptide text beside a SMILES is read from it.

Angiotensin converting enzyme (ACE), sequence (P12821 30-1306, species assumed): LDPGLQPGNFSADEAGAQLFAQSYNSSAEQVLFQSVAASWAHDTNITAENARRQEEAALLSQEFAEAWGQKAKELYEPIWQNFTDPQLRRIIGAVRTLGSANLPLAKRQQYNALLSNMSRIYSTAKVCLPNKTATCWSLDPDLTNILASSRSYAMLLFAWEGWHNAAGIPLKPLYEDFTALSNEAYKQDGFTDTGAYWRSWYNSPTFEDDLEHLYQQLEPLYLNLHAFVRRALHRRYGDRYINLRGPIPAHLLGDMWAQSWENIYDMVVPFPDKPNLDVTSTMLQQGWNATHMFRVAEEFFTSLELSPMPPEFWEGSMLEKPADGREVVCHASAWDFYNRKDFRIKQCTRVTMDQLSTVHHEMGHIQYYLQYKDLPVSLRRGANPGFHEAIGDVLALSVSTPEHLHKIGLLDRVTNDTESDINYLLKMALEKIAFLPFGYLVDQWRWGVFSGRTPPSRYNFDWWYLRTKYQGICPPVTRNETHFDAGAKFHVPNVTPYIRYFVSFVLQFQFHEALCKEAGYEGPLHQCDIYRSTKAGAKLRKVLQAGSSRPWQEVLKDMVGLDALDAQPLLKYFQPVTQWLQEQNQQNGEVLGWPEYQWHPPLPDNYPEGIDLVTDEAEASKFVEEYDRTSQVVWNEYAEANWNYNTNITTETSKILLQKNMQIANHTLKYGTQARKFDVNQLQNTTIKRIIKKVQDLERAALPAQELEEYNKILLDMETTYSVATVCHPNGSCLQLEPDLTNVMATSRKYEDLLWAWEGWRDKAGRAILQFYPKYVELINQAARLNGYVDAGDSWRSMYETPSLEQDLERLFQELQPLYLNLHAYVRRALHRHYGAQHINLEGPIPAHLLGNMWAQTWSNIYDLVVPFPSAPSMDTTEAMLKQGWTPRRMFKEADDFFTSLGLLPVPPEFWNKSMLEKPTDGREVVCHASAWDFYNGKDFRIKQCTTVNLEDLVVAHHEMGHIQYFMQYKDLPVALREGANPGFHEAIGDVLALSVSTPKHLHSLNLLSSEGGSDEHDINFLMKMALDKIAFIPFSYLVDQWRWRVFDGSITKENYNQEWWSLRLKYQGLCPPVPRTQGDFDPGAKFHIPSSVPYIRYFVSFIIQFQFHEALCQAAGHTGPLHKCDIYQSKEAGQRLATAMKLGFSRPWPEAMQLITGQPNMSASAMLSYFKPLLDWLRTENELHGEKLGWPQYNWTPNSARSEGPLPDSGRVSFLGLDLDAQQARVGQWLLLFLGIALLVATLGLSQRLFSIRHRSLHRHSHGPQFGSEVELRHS

Consider `N[C@@H](Cc1ccc(O)cc1)C(=O)N1CCC[C@H]1C(=O)O` [Tyr-Pro] (H-Tyr-Pro-OH), for which the “Abnormality in behavior, appearance, blood pressure and autopsy” value in series [1] is on record as “no abnormality was found”.
With Ile-Pro-Pro, in series [2], the “ACE inhibiting activity (result in words)” value was “strong ACE inhibiting activity”. Besides, in series [3], the “Antihypertensive effect in SHR (result in words)” value is “strong antihypertensive effect”.
In the case of Val-Pro-Pro, the “ACE inhibiting activity (result in words)” value in series [2] was “strong ACE inhibiting activity”. For the same compound, the “Antihypertensive effect in SHR (result in words)” value in series [3] is given as “strong antihypertensive effect”.

Source of the values: patent US5854029A, “Method for preparing antihypertensive agent” (Calpis Co., Ltd., priority 1996, dated 1998).
